Experimental data taken from US12134594B2, “Composition and application thereof as antitumor drug” (Guangdong Jianersheng Pharmaceutical Technology Co., Ltd., priority 2018, dated 2024).

Experiments:
HK2 cells [1] = assay: platinum content in HK2 cells by ICP-MS; format: cell-based, human
Description: The amount of platinum in the cells was determined by an IPC-MS assay.
Platinum concentration was 8.33 ng/10^6 cells. […] Platinum concentration in the HK2 cells dropped by 38.0% to 5.16 ng/10^6 cells as a result.

[2] = metal and platinum amount in kidney by ICP-MS; format: in vivo, mouse
Description: The control group was intraperitoneally (i.p.) administrated with 0.9% normal saline. […] All mice were treated for 3 weeks. The kidney was sliced, weighed and dissolved in 70% HNO3; blood plasma was diluted with 70% HNO3. The sample was heated by a 100° C. hot block until thoroughly evaporated. All solid residues were re-dissolved in 5 mL of 2% HNO3. Platinum was quantified by inductively coupled plasma mass spectrometry (ICP-MS).

mice = assay: acute oral lethal dose (LD50) in mice; format: in vivo, mouse
Description: (§1) According to the technical solutions provided by the present disclosure, the disclosure has the following beneficial effects: • 1. The novel compound in the composition has a high chelating effect on the platinum-based antitumor compound and toxic heavy metals. […] For example, in a test performed in a mouse model with 4T1 breast carcinoma xenografts, the composition combined treatment could better delay tumor growth and inhibit metastasis than administrating the platinum-based antitumor compound alone. • 4. […] Co-treatment using the composition could greatly reduce systemic toxicity in mice and reduce weight loss caused by administrating the platinum-based antitumor compound alone.

[3] = kidney histopathology (HE) in 4T1 mouse model; format: in vivo; details: 3 weeks
Description: The control group was intraperitoneally (i.p.) administrated with 0.9% normal saline. […] All mice were treated for 3 weeks. Histopathological examination of mouse tissues: histopathological changes of the kidney were examined by a 4 μm-thick deparaffinized section stained with hematoxylin and eosin (HE). To evaluate tubular damages, dilation, necrosis, apoptosis, and cast formation of renal tubules were assessed via 10 different fields of view (Zeiss Axio imager electrofluorescence microscope) at the cortical medullary junction of the kidney.

LLC-PK1 cells = assay: in vitro MTT cell viability assay, LLC-PK1 cells; format: cell-based, pig
Description: (§2) The cells involved in this example include a human renal proximal tubular cell line HK2 ([…]2190), a pig proximal tubular cell line LLC-PK1 ([…] 101) and a mouse breast cancer cell line 4[…]2539), which were all purchased from American Type Culture Collection. LLC-PK1 cells were cultured in Dulbecco modified Eagle's medium (DMEM), HK2 cells were cultured in DMEM/F12 medium, and 4T1 cells were cultured in RPMI 1640 medium. All cell media were supplemented with 10% FBS, 100 units/ml penicillin and 100 […]. The cell lines were incubated at 37° C. in a 5% CO2 atmosphere and subcultured twice a week. 3.2 In vitro cell viability assay The HK2 cells and the LLC-PK1 cells were treated with trypsin and inoculated in a 100 μL medium in a 96-well plate at a density of 10,000 cells/well. The cells were incubated for 24 h before treatment. To examine the toxicity of the novel compound, the cells were treated with different doses of the novel compound for 24 h. […] The medium was then changed, and the cells were treated with different doses of the novel compound for 48 h. After treatment, cell viability was measured by an MTT assay. 10 μL of a 12 mM MTT (3-(4,5-dimethylthiazol-2-yl)-2,5-diphenyltetrazolium bromide) stock solution was added into each well. After incubation for 4 h at 37° C., the medium was removed; 100 μL of dimethyl sulfoxide (DMSO) was added into each well, and then the plate was incubated for 10 min at 37° C. The plate was shaken in a plate oscillator, and a plate reader (Bio-Tek) was used to measure the absorbance at 570 nm.

[4] = blood BUN and creatinine (kidney injury markers) in 4T1 mouse model; format: in vivo; details: 3 weeks
Description: The control group was intraperitoneally (i.p.) administrated with 0.9% normal saline. […] All mice were treated for 3 weeks.
An EDTA tube was used to collect whole blood for a complete blood count (CBC) test. Plasma was collected by centrifugation blood collected in a heparin-coated tube. The plasma was used to carry out tests and analyses including CBC and a blood chemical test; plasma BUN and creatinine level were markers of kidney injury.
A 4T1 breast cancer mouse model was used to evaluate the antitumor ability and protective effect of the novel compound. […] When the novel compound was used for intervention, BUN level dropped by 46% to 47.6 mg/dl.

HK2 cells [5] = assay: in vitro MTT cell viability assay, HK2 cells; format: cell-based, human
Description: as §2

rats = assay: acute oral lethal dose (LD50) in rats; format: in vivo, rat
Description: as §1

[6] = after administration of cisplatin and GMDTC

SMILES: CSCC[C@@H](C(=O)[O-])N(C[C@H](O)[C@@H](O)[C@H](O)[C@H](O)CO)C(=S)[S-].[Na+].[Na+] [GMDTC, sodium (S)-2-(dithiocarboxylate ((2S,3R,4R,5R)-2,3,4,5,6-pentahydroxyhexyl)amino)-4-(methylthio)butyrate]
- drop of platinum concentration in HK2 cells (HK2 cells [1]; 50 μM cisplatin + 1000 μM novel compound vs cisplatin alone): 91.5%
- platinum concentration in HK2 cells (HK2 cells [1]; 50 μM cisplatin co-administrated with 1000 μM novel compound, 24 h): 17.2 ng/10^6 cells
- platinum concentration in HK2 cells (HK2 cells [1]; cisplatin exposure 30 min, then 1000 μM novel compound intervention, 48 h): 5.16 ng/10^6 cells
- drop of platinum concentration in HK2 cells (HK2 cells [1]; rescue with 1000 μM novel compound after 30 min cisplatin vs no rescue): 38.0%
- effect on amount and distribution of normal (essential) metals in the body ([2]; mice, ICP-MS, compared with control mice (Table 1 and Table 2)): does not affect
- acute oral lethal dose (LD50) (mice): greater than 10,000 mg/kg
- kidney histopathology ([3]; mice co-treated with cisplatin and 500 mg/kg novel compound, compared with control group): no significant difference
- impact on viability of LLC-PK1 cells compared with blank control (LLC-PK1 cells; 400 μM, 24 h, MTT): not significantly
- cytotoxicity on co-treatment (LLC-PK1 cells; LLC-PK1 cells, 50 μM cisplatin + novel compound, 24 h (FIG. 3B)): reduce cytotoxicity
- IC50 (LLC-PK1 cells; LLC-PK1 cells, 24 h, MTT, read-out: IC50 (toxicity, cell viability)): ~8 mM
- drop of BUN level ([4]; cisplatin + 500 mg/kg novel compound vs cisplatin alone): 46%
- BUN level ([4]; mice, 5 mg/kg cisplatin twice a week + 500 mg/kg novel compound 2 h after cisplatin): 47.6 mg/dL
- impact on viability of HK2 cells compared with blank control (HK2 cells [5]; 1000 μM, 24 h, MTT): not significantly
- cell viability (HK2 cells [5]; HK2 cells pretreated with 300 μM cisplatin 30 min, then GMDTC for 48 h (FIG. 4)): 60 % of that of the control group
- cell viability (HK2 cells [5]; HK2 cells, 50 μM cisplatin + increasing doses of novel compound, 24 h (FIG. 3A)): 80%
- IC50 (HK2 cells [5]; HK2 cells, 24 h, MTT, read-out: IC50 (toxicity, cell viability)): ~8 mM
- acute oral lethal dose (LD50) (rats): greater than 10,000 mg/kg

SMILES: N.N.[Cl][Pt][Cl] [cisplatin]
- platinum concentration in HK2 cells (HK2 cells [1]; 50 μM cisplatin, 24 h): 202.6 ng/10^6 cells
- platinum concentration in HK2 cells (HK2 cells [1]; cisplatin (300 μM) exposure 30 min, removed, cultured 48 h): 8.33 ng/10^6 cells
- Amount in kidney: 27Al [2, 6]: 3.93 µg/g
- Amount in kidney: 55Mn [2, 6]: 0.92 µg/g
- Amount in kidney: 65Cu [2, 6]: 4.13 µg/g
- Amount in kidney: 66Zn [2, 6]: 24.4 µg/g
- Amount in kidney: 195Pt [2, 6]: 9.841 µg/g
- kidney histopathology ([3]; mice treated with 5 mg/kg cisplatin twice a week, 5 mg/kg): extensive necrosis and degeneration
- kidney histopathology ([3]; mice treated with 5 mg/kg cisplatin twice a week, listed as Cisplatin, 5 mg/kg): extensive necrosis and degeneration of tubule cells
- average BUN level ([4]; mice, 5 mg/kg cisplatin i.p. twice a week): 87.9 mg/dL
